Patent US12594255B2, “Lipids with odd number of carbon atoms and their use as pharmaceutical composition or nutritional supplement” (SunRegen Healthcare AG, priority 2016, dated 2026)
“And” between values parts separate entries of the source, which are not always exact repeats. Equal entries are not always repeated.

How the values were obtained:
Type in all cases: cell-based
[1] = system: mouse primary cortical neurons challenged with Aβ1-42 oligomers (AβO); assay: AβO-induced neurotoxicity, 48-h pre-incubation with test item, MTT assay; settings: for Neuroprotection (0.01 μM) / Neuroprotection (0.1 μM): added 48 hours before 1 μM AβO; for neuroprotective effect: 1 μM, 48-h preincubation before 1 μM AβO
Procedure: Mouse primary cortical neurons were pre-incubated for 48 h with vehicle, 0.05 μM DHA (used as positive control) or different concentrations of Compound C. Then, cortical neurons were treated for 24 h with vehicle (FIG. 1 left) or 1 μM AβO ([…]) and cell viability was determined using the MTT assay (n=3 determinations per condition, 1 independent experiment), Data are represented as % of vehicle control (Mean*SD). […]
(§1) Cortical neurons from embryonic day 16-17 are prepared from C57BL6/J mouse fetuses. In brief, dissociated cortical cells were plated (50.000 cells/well) in 48-well plates pre-coated with 1.5 μg/mL polyornithine (Sigma). Cells were cultured in a chemically defined Dulbecco's modified eagle's/F12 medium free of serum and supplemented with hormones, proteins and salts. Cultures were kept at 35° C. in a humidified 6% CO2 atmosphere. Mouse cortical neurons were exposed for 24 h to 1.0 μM AβO after a 48-h pre-incubation with vehicle or different concentrations of Compound C. The AβO-induced neurotoxicity was evaluated using the MTT assay.
All treatments were done in triplicates in 48-well plates. Cells were incubated with vehicle or 1 μM AβO in the absence or presence of different lipids at the indicated final concentrations) added at 48 hours before ADO. Cells were incubated with AβO for 24 h in a final volume of 140 μL per well.
For positive controls, cells are treated similarly (48 hours before AβO) in the presence of 0.05 μM DHA.
Following AβO-treatment, cell viability was measured using the MTT assay. Briefly, cells were incubated at 35° C. for 1 h with MTT (Sigma, Cat #M2128-10G. Lot #MKBH7489V). For that purpose, 14 μL of 5 mg/mL MITT (solubilized in PBS) were added in each well. After incubation, medium was removed and cells were lyzed with 150 μL DMSO for 10 minutes and protected from light. After complete solubilization of formazan, absorbance at 570 nm was recorded.
as §1, with “cells are” for “cells were”, “Cells are” for “Cells were”, “Cultures are” for “Cultures were”, “of herb B extracts.” for “of Compound C.”, “assay. […]” for “assay.”

[2] = system: mouse primary cortical neurons treated with 0.25 mM H2O2; assay: H2O2-induced neurotoxicity, test item added 48 hours before or 3 hours after H2O2, MTT assay
[3] = system: human iPSC-derived neurons challenged with Aβ1-42 oligomers (AβO); assay: AβO-induced neuronal death in human iPSC-derived neurons, NSE ELISA assay
Procedure: iPSCs were treated at 0 h (T0) with vehicle or 1 μM AβO. Different concentrations of Compound C or 0.1 μM HNG (used as positive control) were added concomitantly to AβO at 0 h (T0), 3 h (T3) or 6 h (T6) after AβO. Then, were incubated for 24 h and cell viability was determined using the NSE ELISA assay (n=6 determinations per condition, 1 independent experiment), Data are represented as % of vehicle control (Mean±SD). […]
To determine whether compound C might rescue neuronal death in human iPSC-derived neurons challenged with Aβ1-42 oligomers (AβO). In this cellular model, AβO induce a dramatic neuronal death that could be monitored by the level of neuronal specific enolase (NSE) using a specific ELISA assay. Compound C will be added at different time points (concomitantly and after AMBO) with the aim to identify rescuing effects.
Cells (HIP-Neuronal progenitors, GlobalStem, Cat #GSC-4312, Lot #20010260) are plated in 96-well plates at a density of 60.000 cells per well and culture. Before experiments, cells are matured for five weeks and kept at 37° C. in a humidified 5% CO2 atmosphere.
Cells are incubated with vehicle or 1 μM AβO in the absence or presence of different concentrations (i.e. 10, 100, 1000 and 10000 nM) of Compound C added concomitantly to AβO (T0), 3 h after AβO (T3), or 6 h after AβO (T6). Cells are incubated for 24 h in a final volume of 100 μL per well. For positive control, cells are treated similarly in the presence of 0.1 μM HNG (i.e. S14G variant of humanin peptide). In addition, neuronal loss is monitored using the detection of neuronal specific enolase (NSE) by ELISA assay according to supplier's recommendations (CloneCloud, Cat #SEA537Hu). A total of three data points per experimental condition will be generated here. […]

[4] = system: mouse primary cortical neurons challenged with Aβ1-42 oligomers (AβO); assay: AβO-induced neurotoxicity, test item added concomitantly (T0) or 3 h (T3) or 6 h (T6) after AβO, MTT assay; settings: 0.1 μM HNG added 3 or 6 h after AβO
Procedure: Mouse primary cortical neurons were treated at 0 h (T0) with vehicle or 1 μM AβO, Different concentrations of Compound C or HNG (0.1 μM, used as positive control) were added concomitantly to AβO at 0 h (T0)), 3 h (T3) or 6 h (T6) after AβO. Then, cortical neurons were incubated for 24 h and cell viability was determined using the MTT assay (n=3 determinations per condition, 1 independent experiment). Data are represented as % of vehicle control (Mean±SD). […]
The aim of this study is to determine whether Compound C might present neuroprotective, anti-apoptotic and neuro-rescuing effects in in vitro AβO induced neuron death models. For that purpose, the neuro-protective effects of compound C at six concentrations were investigated using mouse primary cortical neurons challenged with Aβ1-42 oligomers (AβO) Compounds were added at different time points (concomitantly T0 with AβO and T3, or T6 after AβO) with the aim to identify rescuing effects or anti-apoptotic effects.
Cortical neurons from embryonic day 16-17 are prepared from C57Bl6/J mouse fetuses, as described in Example I-1.
Mouse cortical neurons were exposed for 24 h to 1.0 μM AβO. The AβO-induced neurotoxicity was evaluated using the MTT assay. […] (FIG. 4)
The percentage of neuroprotection and anti-apoptosis effects was defined as; (neuron viability of compound C group−neuron viability of toxin treated group)/(100−neuron viability of toxin treated group)×100%. The % of neuroprotection and anti-apoptotic effects of compound C at 1000 nM is 88.7%, 52.0%, 22.3%, at T0, T3, or T6, respectively. (FIG. 4) […]

[5] = system: mouse primary cortical neurons; assay: Axonal growth (MAP2 immunolabelling, axonal length); settings: 60 nM sAPPα; vehicle control 165.96±90.18 μm
Procedure: Mouse primary cortical neurons were pre-incubated for 48 h with vehicle, 60 nM sAPPα (used as positive control) or different concentrations of Compound C. Then, cortical neurons were treated for 24 h with vehicle. Data are represented as % of vehicle control (Mean±SD).
Cortical neurons from embryonic day 16-17 are prepared from C57Bl6/J mouse fetuses, as described in Example I-1. After 96-h incubation, axonal length is recorded. Briefly, cells were washed with ice-cold PBS and fixed with cold methanol. Following fixation, cells are immunolabelled using a specific antibody detecting total MAP2 protein. Antibodies to MAP2 are excellent markers on neuronal cells, their axons and neuronal dendrites. For quantification of axonal length, six independent images of labelled cells are captured using an inverted microscope. Pictures of cells are analyzed using Neuron-J software and axonal length is recorded manually. A minimum of 100 independent neurons are treated. The data are expressed as mean axonal length (expressed in μm) (Mean±SD). Statistical differences between vehicle-treated cells and cells treated with compounds are determined using a t-test.

| Compound | Neuroprotection (0.01 μM) [1] [%] | Neuroprotection (0.1 μM) [1] [%] | neuroprotective effect [1] | other results |
| --- | --- | --- | --- | --- |
| CC/C=C\C/C=C\C/C=C\C/C=C\C/C=C\C/C=C\CCC(=O)O [DHA, Docosahexaenoic acid, reference compound] | – | – | – | remaining cell viability ([1]; 0.05 μM DHA, 48 h pre-incubation, then 1 μM AβO 24 h): 82.0±2.6 % of control and 90.9±3.1 % of control |
| CCCCCCCCCCCCCCC(=O)O [GG05, Pentadecanoic acid] | 21.9 | 14.0 | lost neuroprotective effect | – |
| CCCCCCCCCCCCCCCCC(=O)O [GG07, Heptadecanoic acid] | 27.4 | 21.4 | lost neuroprotective effect | – |
| CCCCCCCCCCCCCCCCCCC(=O)O [GG09, Nonadecanoic acid] | 31.2 | 25.9 | lost neuroprotective effect | – |
| Cc1c(C)c2c(c(C)c1O)CCC(C)(C(=O)O)O2 (stereo not shown) [Trolox] | – | – | – | inhibition of H2O2-induced cell death ([2]; 1 mM Trolox added 48 h before 0.25 mM H2O2): partially inhibited cell death induced by H2O2; inhibition of H2O2-induced cell death ([2]; 1 mM Trolox added at T3 after 0.25 mM H2O2): partially inhibited cell death induced by H2O2 |
| HNG: S14G variant of humanin peptide, positive control, well-known antiapoptotic peptide (MAPRGFSCLLLLTGEIDLPVKRRA; UniProt Q8IVG9 1-24, looked up, variant S14G) [reference compound] | – | – | – | prevention of AβO-induced cell death ([3]; 0.1 μM HNG added 3 or 6 h after AβO): did not prevent cell death; neuron viability ([3]; 0.1 μM HNG added at T0 with 1 μM AβO, 24 h): 85.3±15.6 % of control and 85.3±5.6 % of control; prevention of AβO-induced cell death [4]: did not prevent cell death |
| sAPPα: Secreted amyloid precursor protein-α, positive control [reference compound] | – | – | – | neuronal axon outgrowth (mean axonal length) [5]: 264.63±157.51 μm |
